{"source": "patent US20170143006A1", "about": "“Composition and Use Thereof” (DUPONT NUTRITION BIOSCIENCES APS, priority 2014, published 2017)", "key": {"[1]": {"test_system": "ruminal fluid", "assay": "In vitro fermentation in buffered goat ruminal fluid, 24 h: ruminal parameters (DM, pH, residue, digestibility, N-NH3)", "assay_type": "cell-based, Murciano-Granadina goats", "conditions": "24 h incubation", "source_text": "(§1) Twelve mature Murciano-Granadina goats of similar body weight (46.97±2.5 kg BW) during late lactation were randomly split into 4 groups. Each group was fed with the same total mixed ration for 10 days. Each group included 4 g/kg of one of four types of betaine additive: • 1—Non Coated Betaine BS1 (Betafin S1, natural betaine, DuPont) • 2—Coated Betaine B52 (see preparative example 3) • 3—Coated Betaine B60 (see preparative example 4) • 4—Uncoated Betaine HCl\n(§2) After an adaptation period to the diets including betaine of 10 days, ruminal fluid was obtained by means of an oesophagus probe from all goats. Ruminal fluid from goats (3 per treatment) was obtained just before feeding, transported to the laboratory and immediately strained/filtered across/through four layers of cheesecloth and mixed into an Erlenmeyer flask.\nThe in vitro fermentation was carried out by the following incubation process; the squeezed rumen fluid (after filtration) was mixed with Goering and Van Soest (1970) buffer solution in a 1:4 (v/v) ratio at 39° C. under continuous flow of CO2. […]\nBottles were sealed and incubated at 39° C. for 24 h. Gas measurements were recorded every hour, while pH was measured at the start and right after 24 h; crude fiber, digestibility, CH4 and volatile fatty acid (VFA) concentrations were determined after 24 h of incubation. […]"}, "[2]": {"test_system": "ruminal fluid", "assay": "In vitro fermentation in buffered goat ruminal fluid, 24 h: determination of volatile fatty acids (VFA)", "assay_type": "cell-based, Murciano-Granadina goats", "conditions": "after 24 h of incubation", "method": "Determination of VFA can be based on the method previously described by Jouany, J. P., Volatile fatty acid and alcohol determination in digestive contents, silage juices, bacterial cultures and anaerobic fermentor contents; Sciences des Aliments, 2: 131-144, 1982.\nFor instance, samples are filtered through 0.45 μm cellulose syringe filters. One hundred microliters of an internal standard solution (0.4 g of 4-metil-valeric acid diluted in 100 ml of deionised water) and 0.1 ml of a preservative (a mix of 5% H3PO4 and 1% CIHg in deionised water) are added to 0.8 ml of filtrate. One μL from each sample is injected in a gas chromatograph (Fisons 8000 series, Milan, Italy) equipped with a split/splitless injector and FID detector. The separation of SOFA (short chain fatty acids) is made in a DB-FFAP capillary column (30 m×0.25 mm×0.25 μm of film thickness) J&W Scientific (USA). The carrier gas is N2 at a constant pressure of 120 KPa. Both detector and injector temperatures are set at 245° C. The initial oven temperature is set at 115° C. held for 5 min and increased to 230 at 8.5° C./min and finally maintained at that temperature for 10 min. SOFA are identified by comparing their retention times with a standard (46975-U de Supelco®, PA, USA).\nas §1, §2\n(§3) The in vitro fermentation was carried out by the following incubation process; the squeezed rumen fluid (after filtration) was mixed with Goering and Van Soest (1970) buffer solution in a 1:4 (v/v) ratio at 39° C. under continuous flow of CO2.\n(§4) Samples of 1 g of total ration (0.4 g concentrate and 0.6 g alfalfa hay) plus betaine (0.015 g of each type) were accurately weighed and mixed into 125 mL bottles (ANKOM RF equipment). 50 mL of the buffered rumen fluid was added to each bottle under CO2 flow.\n(§5) Bottles were sealed and incubated at 39° C. for 24 h. Gas measurements were recorded every hour, while pH was measured at the start and right after 24 h; crude fiber, digestibility, CH4 and volatile fatty acid (VFA) concentrations were determined after 24 h of incubation."}, "[3]": {"test_system": "ruminal fluid", "assay": "In vitro fermentation in buffered goat ruminal fluid, 24 h: gas production (methane content CH4)", "assay_type": "cell-based, Murciano-Granadina goats", "conditions": "for Gas production / mL CH4: after 24 hrs of incubation; for CH4/S / mL CH4/S / mL gas/S: per S (substrate in g DM), 24 hrs", "method": "The gas content can be analysed in a Focus Gas Chromatograph (Thermo, Milan, Italy) equipped with a split/splitless injector and a flame ionization detector. The separation can be performed in a GS-Q capillary column (J&W Scientific, USA) (30 m×0.32 mm i.d.). The carrier gas may be Helium at a constant flow of 1 ml/min. The samples may be injected with a split ratio of 1/100. The initial oven temperature can be set at 50° C. held for 1 min and increased to 150 at 50° C./min and finally maintained at that temperature for 2 min. Both detector and injector temperatures can be set at 200° C. An external standard (41.21% CO2 and 58.79% CH4) may be employed for quantification of methane content in samples.\nas §1, §2, §3, §4, §5"}, "[4]": {"conditions": "pure form, white crystalline compound; cited from earlier work"}}, "note": "Counter-ions that a name gives are not always drawn. Marks after values point to notes of the source that are not given here.", "data": [{"smiles": "C[N+](C)(C)CC(=O)O", "note": "[BHCl, Betaine HCl, reference compound]", "values": [{"measurement": "N—NH3, mg/L (ammonia nitrogen)", "setting": "[1]", "value": 51.13, "unit": "mg/L"}, {"measurement": "Acetic acid", "setting": "[2]", "value": 63.90}, {"measurement": "Butyric acid", "setting": "[2]", "value": "14.63^a"}, {"measurement": "Isobutyric acid", "setting": "[2]", "value": 0.61}, {"measurement": "Isovaleric acid", "setting": "[2]", "value": 0.95}, {"measurement": "N-Caproic acid", "setting": "[2]", "value": 0.19}, {"measurement": "N-Valeric acid", "setting": "[2]", "value": 1.64}, {"measurement": "Propionic acid", "setting": "[2]", "value": "18.07^b"}, {"measurement": "Total VFA", "setting": "[2]", "value": 47.13, "unit": "mmol/L"}, {"measurement": "Gas production", "setting": "[3]", "value": 210.67, "unit": "mL"}, {"measurement": "mL CH4", "setting": "[3]", "value": "10.68^a mL"}, {"measurement": "CH4/S", "setting": "[3]", "value": 437.48, "unit": "J"}, {"measurement": "mL CH4/S", "setting": "[3]", "value": "11.10^a mL"}, {"measurement": "mL gas/S", "setting": "[3]", "value": 218.70, "unit": "mL"}]}, {"smiles": "C[N+](C)(C)CC(=O)[O-]", "note": "[BS1, betaine]", "values": [{"measurement": "N—NH3, mg/L (ammonia nitrogen)", "setting": "[1]", "value": 45.04, "unit": "mg/L"}, {"measurement": "Acetic acid", "setting": "[2]", "value": 63.92}, {"measurement": "Butyric acid", "setting": "[2]", "value": "15.26^a"}, {"measurement": "Isobutyric acid", "setting": "[2]", "value": 0.51}, {"measurement": "Isovaleric acid", "setting": "[2]", "value": 0.66}, {"measurement": "N-Caproic acid", "setting": "[2]", "value": 0.18}, {"measurement": "N-Valeric acid", "setting": "[2]", "value": 1.55}, {"measurement": "Propionic acid", "setting": "[2]", "value": "17.92^b"}, {"measurement": "Total VFA", "setting": "[2]", "value": 43.46, "unit": "mmol/L"}, {"measurement": "Gas production", "setting": "[3]", "value": 203.41, "unit": "mL"}, {"measurement": "mL CH4", "setting": "[3]", "value": "12.17^a mL"}, {"measurement": "CH4/S", "setting": "[3]", "value": 498.54, "unit": "J"}, {"measurement": "mL CH4/S", "setting": "[3]", "value": "12.65^a mL"}, {"measurement": "mL gas/S", "setting": "[3]", "value": 210.33, "unit": "mL"}]}, {"smiles": "C[N+](C)(C)CC(=O)[O-]", "note": "[betaine, trimethylglycine]", "values": [{"measurement": "solubility in water and lower alcohols", "setting": "[4]", "value": "readily soluble"}]}]}
